Reference: patent publication US20180370912A1, “COMPOUNDS AND METHODS FOR TREATING DISEASES MEDIATED BY PROTEIN DISULFIDE ISOMERASE” (Beth Israel Deaconess Medical Center, Inc., priority 2017, published 2018)

Key:
Format in all cases: biochemical
ERp5 = molecular target: T1, ERp5 (Homo sapiens, UniProt Q15084); assay: Di-eosin-GSSG disulfide reductase assay
T1 construct: recombinant His-tagged full-length ERp5, ERp72 and PDI domain fragments; His; made in house; host or cells: Escherichia coli Origami B (DE3), pET-15b
T1 sequence (Q15084 20-440): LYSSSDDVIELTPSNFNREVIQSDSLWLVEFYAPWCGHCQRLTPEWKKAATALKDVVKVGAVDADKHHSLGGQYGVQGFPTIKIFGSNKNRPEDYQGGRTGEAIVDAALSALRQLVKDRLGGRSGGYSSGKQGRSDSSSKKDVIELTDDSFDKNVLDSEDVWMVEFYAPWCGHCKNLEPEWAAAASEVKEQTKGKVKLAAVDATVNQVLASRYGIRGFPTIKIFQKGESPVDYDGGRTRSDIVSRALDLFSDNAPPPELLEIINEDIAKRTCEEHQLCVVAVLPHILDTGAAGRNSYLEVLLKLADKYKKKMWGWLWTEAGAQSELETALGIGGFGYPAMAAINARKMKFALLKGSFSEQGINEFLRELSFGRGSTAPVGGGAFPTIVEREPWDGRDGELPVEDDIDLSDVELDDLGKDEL
Experimental: (§1) The probe di-eosin glutathione disulfide, di-eosin-GSSG, was prepared as previously described in Raturi, A., Vacratsis, P. O., Seslija, D., Lee, L. & Mutus, B., Biochem J 391, 351-357 (2005). Reductase activity of purified thiol isomerases and PDI domains was monitored in a 96-well fluorescence plate format. PDI, AGHA-PDI, ERpS, ERp57, ERp72 and PDI domains were assayed at 50 nM in the presence or absence of the indicated small molecules, peptides or cathepsin G. The assay included 100 mM potassium phosphate (pH 7.4) containing 2 mM EDTA, 5 μM DTT and 150 nM of the di-eosin GSSG probe. The increase in fluorescence was determined for 20 minutes by excitation at 520 nm and emission at 550 nm in a Synergy Biotek 4. The reduction of 150 nM di-eosin-GSSG by 5 μM DTT in the presence or absence of mentioned small molecules, peptides or proteins served as a negative control.

ERp57 = molecular target: T2, ERp57 (Homo sapiens, UniProt P30101); assay: Di-eosin-GSSG disulfide reductase assay
T2 construct: FLAG; made in house; host or cells: Escherichia coli Origami B (DE3), pET-15b
T2 sequence (P30101 25-505): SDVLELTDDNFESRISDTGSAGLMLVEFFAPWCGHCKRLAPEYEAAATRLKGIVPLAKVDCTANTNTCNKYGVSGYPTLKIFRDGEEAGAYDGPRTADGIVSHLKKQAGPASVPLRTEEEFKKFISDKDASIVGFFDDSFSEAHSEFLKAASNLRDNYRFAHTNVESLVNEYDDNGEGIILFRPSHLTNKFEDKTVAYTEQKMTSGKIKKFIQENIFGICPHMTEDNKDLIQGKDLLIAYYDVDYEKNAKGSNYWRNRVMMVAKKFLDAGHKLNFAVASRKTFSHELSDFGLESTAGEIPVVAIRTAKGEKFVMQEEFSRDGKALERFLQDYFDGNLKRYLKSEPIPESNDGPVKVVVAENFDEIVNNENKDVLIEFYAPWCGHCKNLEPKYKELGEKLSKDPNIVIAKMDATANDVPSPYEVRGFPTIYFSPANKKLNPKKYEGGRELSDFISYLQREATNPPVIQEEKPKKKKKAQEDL
Experimental: as §1

ERp72 = molecular target: T3, ERp72 (Homo sapiens, UniProt P13667); assay: Di-eosin-GSSG disulfide reductase assay
T3 construct: recombinant His-tagged full-length ERp5, ERp72 and PDI domain fragments; His; made in house; host or cells: Escherichia coli Origami B (DE3), pET-15b
T3 sequence (P13667 21-645): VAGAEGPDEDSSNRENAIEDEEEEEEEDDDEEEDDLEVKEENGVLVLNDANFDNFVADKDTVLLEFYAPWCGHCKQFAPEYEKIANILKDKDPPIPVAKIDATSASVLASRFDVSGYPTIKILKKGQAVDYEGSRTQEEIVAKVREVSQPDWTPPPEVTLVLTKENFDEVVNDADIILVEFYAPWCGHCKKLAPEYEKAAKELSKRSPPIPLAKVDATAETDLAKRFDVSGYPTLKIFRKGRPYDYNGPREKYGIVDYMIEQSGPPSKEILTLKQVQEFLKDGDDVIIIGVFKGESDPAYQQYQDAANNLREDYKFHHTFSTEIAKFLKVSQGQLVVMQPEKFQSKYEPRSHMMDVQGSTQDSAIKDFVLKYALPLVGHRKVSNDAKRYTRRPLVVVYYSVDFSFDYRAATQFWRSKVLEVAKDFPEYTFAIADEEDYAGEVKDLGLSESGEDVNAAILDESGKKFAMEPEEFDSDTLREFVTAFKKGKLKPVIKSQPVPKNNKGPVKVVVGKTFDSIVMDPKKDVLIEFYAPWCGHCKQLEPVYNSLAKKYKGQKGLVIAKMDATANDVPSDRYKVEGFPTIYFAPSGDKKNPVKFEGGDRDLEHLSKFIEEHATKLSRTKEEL
Experimental: as §1

[1] = molecular target: T4, PDI fragments abb′ and b′xa′ (Homo sapiens, UniProt P07237); assay: Di-eosin-GSSG reductase assay of PDI fragments; settings: 30 μM, FIG. 5a
T4 construct: abb′ (residues 1-331), or b′xa′ (residues 219-462); His; made in house; host or cells: Escherichia coli Origami B (DE3), pET-15b
Experimental: as §1
T4 sequence (P07237 236-479): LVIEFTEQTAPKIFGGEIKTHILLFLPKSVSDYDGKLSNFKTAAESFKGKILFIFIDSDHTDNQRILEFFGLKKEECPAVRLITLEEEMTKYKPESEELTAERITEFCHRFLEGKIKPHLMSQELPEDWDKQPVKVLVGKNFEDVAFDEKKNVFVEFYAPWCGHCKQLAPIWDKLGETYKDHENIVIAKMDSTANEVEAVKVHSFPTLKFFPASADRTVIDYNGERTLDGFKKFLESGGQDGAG

[2] = molecular target: T5, PDI fragments abb′ and b′xa′ (Homo sapiens, UniProt P07237); assay: Di-eosin-GSSG reductase assay of PDI fragments; settings: 30 μM, FIG. 5a; remark: listed apart in the source
T5 construct: abb′ (residues 1-331), or b′xa′ (residues 219-462); His; made in house; host or cells: Escherichia coli Origami B (DE3), pET-15b
T5 sequence (P07237 18-348): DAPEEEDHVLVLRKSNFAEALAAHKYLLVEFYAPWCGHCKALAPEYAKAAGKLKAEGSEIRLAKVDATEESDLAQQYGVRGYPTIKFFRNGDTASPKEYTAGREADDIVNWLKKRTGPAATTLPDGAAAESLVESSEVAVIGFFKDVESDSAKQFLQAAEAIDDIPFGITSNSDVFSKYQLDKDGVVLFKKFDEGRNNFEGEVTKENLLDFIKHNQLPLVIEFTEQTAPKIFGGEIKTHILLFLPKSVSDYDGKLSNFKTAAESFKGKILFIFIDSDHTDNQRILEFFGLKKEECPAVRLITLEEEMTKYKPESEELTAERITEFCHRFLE
Experimental: as §1

How did the “cleavage of di-eosin-GSSG by ERp5 (catalytic activity)” value (ERp5) turn out when CCOC(=O)c1c(CNCCN(CC)CC)n(-c2ccccc2)c2cc(Br)c(O)cc12 [bepristat 2a] was run?
Its value is “did not augment activity”.

And the “cleavage of di-eosin-GSSG by ERp57 (catalytic activity)” value (ERp57)?
The value was “did not augment activity”.

And the “cleavage of di-eosin-GSSG by ERp72 (catalytic activity)” value (ERp72)?
The value was “did not augment activity”.

What about the “di-eosin-GSSG cleavage by b′xa′ fragment” value [1] of the same molecule?
The value was “significantly augmented the catalytic activity”.

What about the “di-eosin-GSSG cleavage by abb′ fragment” value [2] of the same molecule?
Its value is “failed to augment activity”.
